Assays:
[1] = system: accumulation of sorbitol in sciatic nerve; experiment: Inhibiting the accumulation of sorbitol in sciatic nerve of streptozotocin diabetic rats; type: in vivo, Sprague-Dawley male rats; conditions: twice a day for 5 days
Protocol: Groups of 6 to 8-weeks-old Sprague-Dawley male rats (4 aminals per group) were fasted for 18 hours and streptozotocin was injected through the tail vein in a dose of 60 mg/kg to thus obtain diabetic rats. Immediately after the administration of the streptozotocin, each compound to be tested was orally administered to these rats in the form of a suspension at a dose of 10 mg/kg, 30 mg/kg and 50 mg/kg (each was suspended in a 0.5% sodium carboxymethyl cellulose solution) twice a day (9 o'clock in the morning and 5 o'clock in the afternoon) for 5 days. During the test, the rats took diet and drank water freely. 4 Hours after the final administration of the drug in the 5th day's morning (9 o'clock in the morning), the rats were sacrificed and then the sciatic nerve thereof was removed to determine the amount of sorbitol accumulated therein.
The results are expressed in the percentage obtained while the value obtained on the control to which any drug was not administered is defined to be 100.

aldose reductase = molecular target: T1, aldose reductase (Rattus norvegicus, UniProt P07943); experiment: Aldose reductase inhibitory effect (enzyme from crystalline lenses, DL-glyceraldehyde substrate); type: biochemical, rat (male SD); conditions: 10 mM DL-glyceraldehyde, pH 6.2, 30° C.
T1 construct: Then their crystalline lenses were immediately removed and stored at -80° C; The lenses were homogenized; from tissue; host or cells: crystalline lenses of six-week-old male SD rats
Protocol: Six-weeks-old male SD rates were anesthetized with ether and killed. Then their crystalline lenses were immediately removed and stored at -80° C. […] All operations were conducted at 4° C. and the enzyme solution was stored at -80° C.
More specifically, 0.1 ml of DL glyceraldehyde (final concentration: 10 mM) was added to 0.9 ml of 100 mM sodium potassium phosphate buffer (pH 6.2) which contained lithium sulfate (final concentration: 400 mM), reduced nicotinamide adenine dinucleotide phosphate (final concentration: 0.15 mM), the enzyme solution, and the compound to be evaluated (final concentration: 10^-6 M, 10^-7 M or […]), and then the reaction was conducted at 30° C. for 5 minutes. During the reaction, the change in the absorbance at 340 nm with time was monitored. The maximum reducing rate of the absorbance (U) during the reaction was determined. By subtracting, from this value, the maximum reducing rate (Uo) at 340 nm of the reaction solution before the addition of the substrate (DL-glyceraldehyde), the reaction rate (V=U-Uo) was calculated as a true reaction rate in the presence of the compound to be tested.
The same procedure was repeated except for the absence of the compound to be tested. A true reaction rate (Vo) in case the enzyme was not inhibited was calculated (Vo =U'-Uo '). The aldose reductase inhibitory activity of the test compounds was determined according to the following formula:
Rate of Inhibition (%)=(Vo -V)/Vo ×100

IC50 (aldose reductase)	SMILES	Rate of Inhibition of Sorbitol Accumulation ([1]; 10 mg/kg oral)	Rate of Inhibition of Sorbitol Accumulation ([1]; 30 mg/kg oral)
18 nM	Cc1ccsc1-c1nnnn1CC(=O)O [Example 2-2, [5-(3-methyl-2-thienyl)tetrazol-1-yl] acetic acid]	62%	93%
21 nM	O=C(O)Cn1nnnc1-c1ccsc1 [Example 2-5, [5-(3-thienyl)tetrazol-1-yl] acetic acid]	73%	90%

Source: patent publication USRE35321E, “Tetrazoleacetic acid derivatives having aldose reductase inhibitory activity” (Wakamoto Pharmaceutical Co., Ltd., priority 1990, dated 1996)
